The values below are quoted from earlier work in USRE37771E1, “Purification of cinnamoyl-C-glycoside chromone” (Univera Pharmaceuticals, Inc., priority 1996, dated 2002).

The subject of data set [1] is epithelial cell lines. Conditions: in vitro, details in related U.S. application Ser. No. 08/391,139.
For data set [2] the following is noted: in vivo assays; details in related U.S. application Ser. No. 08/391,139.

For the compound `COc1cc(C)c2c(=O)cc(CC(C)O)oc2c1C1OC(CO)C(O)C(O)C1OC(=O)/C=C/c1ccccc1` [540 compound, 8-C-β-D-[2′-O-(E)-cinnamoyl]glycopyranosyl-2-[(S)-2-hydroxy]propyl-7-methoxy-5-methylchromone], the “inhibition of EGF-induced DNA synthesis” value in data set [1] is “inhibit EGF-induced DNA synthesis”. In addition, the anti-inflammatory activity entry in data set [2] was “potent anti-inflammatory activity”.
